One series concerns Pyricularia oryzae. Nature of the series: microbe, parasite or virus in culture. It is filed as cell-based. Particulars: read-out: MIC (Minimum Inhibitory Concentration).

In brackets after ≈: the same amount, converted by molar mass.

Regarding `CC(C)Nc1c(-c2c(F)cc(F)cc2F)c(Cl)nc2ccnn12`, the melting point (usually the temperature of the solid-liquid transition) came out at 143 °C.
Turning to `CC(C)N(C)c1c(-c2c(F)cc(F)cc2F)c(Cl)nc2ccnn12`, the melting point came out at 109 °C.
Compound `Fc1cc(F)c(-c2c(Cl)nc3ccnn3c2NC2CCCC2)c(F)c1` gave a melting point of 128 °C.
Regarding `CCN(CC)c1c(-c2c(F)cc(F)cc2F)c(Cl)nc2ccnn12`, the melting point is 90 °C.
Regarding `Fc1cc(F)c(-c2c(Cl)nc3ccnn3c2NCC(F)(F)F)c(F)c1` [Example I-7, [5-chloro-6-(2,4,6-trifluoro-phenyl)-pyrazolo[1,5-α]pyrimidin-7-yl]-(2,2,2-trifluoro-ethyl)-amine], in the series with Pyricularia oryzae, the MIC was determined as 0.78 µg/mL (≈ 2.05 µM).

Values taken from patent US6730680B2 (priority 1999, dated 2004).
